Test results: article PMC10721329, “Quisinostat is a brain-penetrant radiosensitizer in glioblastoma” (JCI Insight, 2023)
Where “and” joins values, the source holds several entries; their conditions need not be identical. Identical values can stand only once. Like-named read-outs stand apart in the source and are kept apart here.

Experiment: Plasma pharmacokinetics by route of administration (IP, SC, OG)
Type: in vivo, athymic nude mice
Details: for AUC(0-t): athymic nude (Foxn1nu), single dose 10 mg/kg, athymic nude mice, read-out: AUClast (plasma)
Method: Because the efficacy of QST in preclinical models of brain tumors remains controversial, and because previous studies employed various drug delivery methods, we sought to understand how different routes of administration affect the bioavailability of QST in mice. Three routes of administration were compared to determine the optimal dosing route to obtain the highest plasma exposure to QST over time. We treated athymic nude mice with a single dose of QST (10 mg/kg) through intraperitoneal (IP), subcutaneous (SC), or oral gavage (OG) delivery and collected blood at 0.5, 1, 2, 4, 6, 8, and 24 hours after dosing from individual mice for PK analysis (Figure 5A). […] Therefore, IP delivery was the optimal route of administration to maximize the bioavailability of QST in athymic nude mice.
QST concentrations in specimens were measured using reverse-phase LC on the AB SCIEX QTRAP6500+ LC-MS/MS system by operating electrospray in the positive ion mode. For liquid chromatographic separation, gradient elution was performed using a Phenomenex Kinetex F5 100 Å column (100 × 2.1 mm, 2.6 μm). The initial composition of the mobile phase was 70% phase A (0.1% formic acid in water) and 30% phase B (0.1% formic acid in 1:1 acetonitrile/methanol) with a 0.35 mL/min flow rate. Gradient elution was achieved as follows: mobile phase (B) was maintained at 30% from 0 to 0.3 minutes, increased to 95% from 0.3 to 0.8 minutes, maintained at 95% from 0.8 to 2.5 minutes, and decreased to 30% from 2.5 to 2.8 minutes. The total run time was 3.5 minutes. The internal standard used in this study was D8-infigratinib. The retention times for QST and D8-infigratinib were 1.6 and 1.8 minutes, respectively. Mass-to-charge ratio transitions were as follows: 395.20 → 144.00 (QST) and 568.08 → 321.00 (D8-infigratinib). LC-MS/MS analysis was performed using an Analyst 1.7 Chromatographic Data System. See Supplemental Methods for detailed PK experiments. […]
Preparation of QST for In Vivo Use
For in vivo preparation, QST was dissolved in 50% polyethylene glycol (PEG) 300, 50% sterile water solution for 10 mg/kg dosing. The suspension was then sonicated for 10 minutes to allow the drug to completely dissolve. Finally, the pH of both the drug and the vehicle solutions was adjusted to 7.4 before intraperitoneal dosing.
Determination of Optimal Administration Route
Foxn1nu nude male mice (The Jackson Laboratory) were used to determine the drug administration route that would result in the best QST bioavailability. Three cohorts of mice were treated with a single dose of 10 mg/kg QST delivered through intraperitoneal, subcutaneous, or oral gavage routes (3 mice per cohort). Following administration of the single dose, approximately 30 µL of blood was drawn from the tip of the tails at the following time points: 0.5, 1, 2, 4, 6, 8, and 24 hours. The collected blood was immediately centrifuged at 3000 rpm for 10 minutes at 4 °C to separate plasma, which was subsequently flash frozen. At the 24 - hour time point, following the last blood sample collection, mice were sacrificed and the whole brains from each mouse were dissected and flash-frozen for subsequent analysis. […]
Calibration Standards and Quality Control Samples
Stock solutions of standard (1 mM QST) and IS (250 µM D8-infigratinib) were prepared in acetonitrile. Working solutions for calibration curve standards and quality controls (QCs) were prepared by dilutions with a 40% methanol mixture aqueous solution. The IS precipitation solution (10 nM) was prepared from the IS stock solutions by dilution with methanol. Calibration standards and batch qualifying QCs were freshly spiked for every batch. For sample analysis in human and mouse matrices, calibration standards were prepared in bulk by spiking appropriate amounts of working solutions into blank human plasma, used as a surrogate matrix due to the instability of QST in mouse plasma. For sample analysis in neural stem cell media and cell […]

In the case of `Cn1cc(CNCC2CCN(c3ncc(C(=O)NO)cn3)CC2)c2ccccc21` [QST, quisinostat], the “[QST] in plasma” value (IP 10 mg/kg single dose, 0.5 h, individual mice, 10 mg/kg) was 347 nmol/L and 1180 nmol/L and 730 nmol/L, the “[QST] in plasma” value (IP 10 mg/kg single dose, 1 h, individual mice, 10 mg/kg) was 268 nmol/L and 778 nmol/L and 432 nmol/L and the “[QST] in plasma” value (IP 10 mg/kg single dose, 2 h, individual mice, 10 mg/kg) was 70.8 nmol/L and 154 nmol/L and 237 nmol/L. The “[QST] in plasma” value (IP 10 mg/kg single dose, 4 h, individual mice, 10 mg/kg) was 22.3 nmol/L and 40.2 nmol/L and 126 nmol/L, the “[QST] in plasma” value (IP 10 mg/kg single dose, 6 h, individual mice, 10 mg/kg) was 12.5 nmol/L and 15.1 nmol/L and 47 nmol/L and the “[QST] in plasma” value (IP 10 mg/kg single dose, 8 h, individual mice, 10 mg/kg) was 8.68 nmol/L. For the same compound, the “[QST] in plasma” value (IP 10 mg/kg single dose, 24 h, individual mice, 10 mg/kg) was 0.963 nmol/L and 0.894 nmol/L, the “[QST] in plasma” value (OG 10 mg/kg single dose, 0.5 h, individual mice) was “not detectable and 7.12 nmol/L” and the “[QST] in plasma” value (OG 10 mg/kg single dose, 1 h, individual mice) was “not detectable and 4.92 nmol/L”. For the same compound, the “[QST] in plasma” value (OG 10 mg/kg single dose, 2 h, individual mice) was “not detectable and 10.8 nmol/L”, the “[QST] in plasma” value (OG 10 mg/kg single dose, 4 h, individual mice) was “not detectable and 44.7 nmol/L and 3.91 nmol/L” and the “[QST] in plasma” value (OG 10 mg/kg single dose, 6 h, individual mice) was “not detectable and 5.16 nmol/L”. For the same compound, the “[QST] in plasma” value (OG 10 mg/kg single dose, 8 h, individual mice) was “not detectable and 1.29 nmol/L and 4.22 nmol/L”, the “[QST] in plasma” value (OG 10 mg/kg single dose, 24 h, individual mice) was “not detectable and 0.965 nmol/L” and the “[QST] in plasma” value (SC 10 mg/kg single dose, 0.5 h, individual mice, 10 mg/kg) was 482 nmol/L and 355 nmol/L. For the same compound, the “[QST] in plasma” value (SC 10 mg/kg single dose, 1 h, individual mice, 10 mg/kg) was 617 nmol/L and 493 nmol/L, the “[QST] in plasma” value (SC 10 mg/kg single dose, 2 h, individual mice, 10 mg/kg) was 169 nmol/L and 281 nmol/L and 430 nmol/L and the “[QST] in plasma” value (SC 10 mg/kg single dose, 4 h, individual mice, 10 mg/kg) was 41.6 nmol/L and 61.2 nmol/L and 96.2 nmol/L. The “[QST] in plasma” value (SC 10 mg/kg single dose, 6 h, individual mice, 10 mg/kg) was 14.4 nmol/L and 21.7 nmol/L and 34.8 nmol/L, the “[QST] in plasma” value (SC 10 mg/kg single dose, 8 h, individual mice, 10 mg/kg) was 7.48 nmol/L and 13.4 nmol/L and 15.5 nmol/L and the “[QST] in plasma” value (SC 10 mg/kg single dose, 24 h, individual mice, 10 mg/kg) was 0.909 nmol/L and 0.187 nmol/L and 0.208 nmol/L. For the same compound, the concentration at 8 h (male, Foxn1nu athymic nude, mouse, plasma, ip, 10 mg/kg, IP 10 mg/kg single dose, 8 h, individual mice, read-out: [QST] in plasma) was 15.9 nM, the concentration at 24 h (male, Foxn1nu athymic nude, mouse, plasma, ip, 10 mg/kg, IP 10 mg/kg single dose, 24 h, individual mice, read-out: [QST] in plasma) was 1.2 nM and the concentration at 0.5 h (male, Foxn1nu athymic nude, mouse, plasma, oral, 10 mg/kg, OG 10 mg/kg single dose, 0.5 h, individual mice, read-out: [QST] in plasma) was 8.17 nM. The concentration at 1 h (male, Foxn1nu athymic nude, mouse, plasma, oral, 10 mg/kg, OG 10 mg/kg single dose, 1 h, individual mice, read-out: [QST] in plasma) was 7.64 nM, the concentration at 2 h (male, Foxn1nu athymic nude, mouse, plasma, oral, 10 mg/kg, OG 10 mg/kg single dose, 2 h, individual mice, read-out: [QST] in plasma) was 8.86 nM and the concentration at 6 h (male, Foxn1nu athymic nude, mouse, plasma, oral, 10 mg/kg, OG 10 mg/kg single dose, 6 h, individual mice, read-out: [QST] in plasma) was 4.91 nM. For the same compound, the concentration at 24 h (male, Foxn1nu athymic nude, mouse, plasma, oral, 10 mg/kg, OG 10 mg/kg single dose, 24 h, individual mice, read-out: [QST] in plasma) was 0.81 nM, the concentration at 0.5 h (male, Foxn1nu athymic nude, mouse, plasma, sc, 10 mg/kg, SC 10 mg/kg single dose, 0.5 h, individual mice, read-out: [QST] in plasma) was 300 nM and the concentration at 1 h (male, Foxn1nu athymic nude, mouse, plasma, sc, 10 mg/kg, SC 10 mg/kg single dose, 1 h, individual mice, read-out: [QST] in plasma) was 418 nM. It also gave a concentration at 8 h (male, Foxn1nu athymic nude, mouse, plasma, IP 10 mg/kg single dose, 8 h, individual mice, read-out: [QST] in plasma) of 25.7 nM, an AUC(0-t) (male, mouse, plasma, oral, OG) of 0.106 µM·h and an AUC(0-t) (male, mouse, plasma, IP) of 1.2 µM·h. The AUC(0-t) (male, mouse, plasma, SC) was 1.19 µM·h.
